Laboratory results as given in US20210221848A1, “POLYMYXIN DERIVATIVES AND THEIR USE IN COMBINATION THERAPY TOGETHER WITH DIFFERENT ANTIBIOTICS” (priority 2014, published 2021).
Read-outs that look alike come from different tables or passages of the source.

What was measured:
[1] = tested on: A. baumanii strains with elevated MICs to Polymyxin B; experiment: MIC against strains with elevated MICs to Polymyxin B; type: cell-based, Acinetobacter baumannii; conditions: Table 6D; for MIC A. baumannii 053: strain 053, elevated MIC to Polymyxin B; for MIC A. baumannii 056: strain 056, elevated MIC to Polymyxin B; for MIC A. baumannii 068: strain 068, elevated MIC to Polymyxin B; for MIC A. baumannii 070: strain 070, elevated MIC to Polymyxin B
How it was run: (§1)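 Values are modal MICs where compounds were tested repeatedly, otherwise the lower of duplicates agreeing within 2-fold, with greater variation rejected. Inoculum: isolated colonies from 18-24 h Mueller-Hinton agar, suspended directly to 0.5 McFarland.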

[2] = tested on: K. pneumoniae strains with elevated MICs to Polymyxin B; experiment: MIC against strains with elevated MICs to Polymyxin B; type: cell-based, Klebsiella pneumoniae; conditions: Table 6D; for MIC K. pneumoniae 062: strain 062, elevated MIC to Polymyxin B; for MIC K. pneumoniae 063: strain 063, elevated MIC to Polymyxin B; for MIC K. pneumoniae 064: strain 064, elevated MIC to Polymyxin B; for MIC K. pneumoniae 655: strain 655, elevated MIC to Polymyxin B
How it was run: as §1

[3] = tested on: E. coli strains with elevated MICs to Polymyxin B; experiment: as above; type: cell-based, Escherichia coli; conditions: Table 6D; for MIC E. coli 058: strain 058, elevated MIC to Polymyxin B; for MIC E. coli 059: strain 059, elevated MIC to Polymyxin B; for MIC E. coli 060: strain 060, elevated MIC to Polymyxin B; for MIC E. coli 061: strain 061, elevated MIC to Polymyxin B
How it was run: as §1

[4] = tested on: P. aeruginosa strains with elevated MICs to Polymyxin B; experiment: MIC against strains with elevated MICs to Polymyxin B; type: cell-based, Pseudomonas aeruginosa; conditions: Table 6D; for MIC P. aeruginosa 065: strain 065, elevated MIC to Polymyxin B; for MIC P. aeruginosa 066: strain 066, elevated MIC to Polymyxin B; for MIC P. aeruginosa 067: strain 067, elevated MIC to Polymyxin B
How it was run: as §1

[5] = absence of a second agent, Table 6B

Substance | MIC, P. aeruginosa ATCC 27853 (P. aeruginosa; sole activity, Table 6C) [micrograms/mL] | MIC, P. aeruginosa CCUG 59347 (P. aeruginosa; sole activity, Table 6C) [micrograms/mL] | MIC A. baumannii 053 [1] [micrograms/mL] | MIC A. baumannii 056 [1] [micrograms/mL] | MIC A. baumannii 068 [1] [micrograms/mL] | MIC, K. pneumoniae ATCC 4352 (K. pneumoniae; sole activity, Table 6C) [micrograms/mL] | MIC, E. coli ATCC 25922 (E. coli; sole activity, Table 6C) [micrograms/mL] | MIC K. pneumoniae 063 [2] [micrograms/mL] | MIC K. pneumoniae 064 [2] [micrograms/mL] | MIC E. coli 058 [3] [micrograms/mL] | MIC E. coli 059 [3] [micrograms/mL] | MIC E. coli 060 [3] [micrograms/mL] | MIC E. coli 061 [3] [micrograms/mL] | MIC, A. baumannii ATCC BAA-747 (A. baumannii; sole activity, Table 6C) [micrograms/mL] | MIC, A. baumannii NCTC 13424 (A. baumannii; sole activity, Table 6C) [micrograms/mL] | MIC P. aeruginosa 065 [4] [micrograms/mL] | MIC P. aeruginosa 066 [4] [micrograms/mL] | MIC P. aeruginosa 067 [4] [micrograms/mL] | MIC A. baumannii 070 [1] [micrograms/mL] | MIC K. pneumoniae 655 [2] [micrograms/mL] | also measured
cis-5- (benzylcarbamoyl) piperidine-3- carbonyl Polymyxin B nonapeptide [Example D66] | 0.5 | 0.5 | >256 | 128 | 32 | 0.125 | 0.125 | 64 | 32 | 8 | 16 | 8 | 32 | 0.25 | 0.25 | 16 | 32 | >256 |  |  | MIC, K. pneumoniae ATCC BAA-2146 (K. pneumoniae; sole activity, Table 6C): 0.06 micrograms/mL; MIC, E. coli NCTC 13441 (E. coli; sole activity, Table 6C): 0.125 micrograms/mL; MIC K. pneumoniae 062 [2]: 128 micrograms/mL
(trans-5-(isobutyl- piperidine)-3- carbonyl L-Thr- D-Ser-polymyxin B heptapeptide [Example D82] | 2 | 4 | 16 | 8 | 32 | 0.06 | 0.125 | 16 | 1 | 4 | 4 | 4 | 8 | 0.06 | 0.125 | 0.5 |  | 64 | 32 | 8 | MIC K. pneumoniae 062 [2]: 32 micrograms/mL
cis-5-cyclohexyl- piperidine-3- carbonyl L-Thr-L- Dap-polymyxin B heptapeptide [Example D85] | 0.125 | 0.25 | 64 | 4 | 8 | 0.06 | 0.06 | 64 | 16 | 2 | 16 | 4 | 16 | 0.015 | 0.06 | 4 | 16 | >128 | 8 | 32 | MIC, E. coli NCTC 13441 (E. coli; sole activity, Table 6C): 0.125 micrograms/mL
trans-5- cyclohexyl- piperidine-3- carbonyl L-Thr-L- Dap-polymyxin E heptapeptide [Example D86] | 0.25 | 0.5 | 16 | 50.25 | 1 | 0.03 | 0.125 | 8 | 1 | 0.5 | 1 | 1 | 4 | 0.03 | 0.06 | 0.5 | 0.25 | 32 | 2 | 4 | MIC K. pneumoniae 062 [2]: 1 micrograms/mL
trans-4- octylpyrrolidine-3- carbonyl polymyxin B nonapeptide [Example D30] |  |  | 16 | 8 | 2 |  |  | 4 | 1 | 1 | 1 | 1 | 4 |  |  | 0.5 | 0.5 | 16 | 1 | 2 | MIC, P. aeruginosa ATCC 27853 (P. aeruginosa; [5]): 1 micrograms/mL; MIC, P. aeruginosa CCUG 59347 (P. aeruginosa; [5]): 1 micrograms/mL; MIC, K. pneumoniae ATCC 4352 (K. pneumoniae; [5]): 1 micrograms/mL; MIC, E. coli ATCC 25922 (E. coli; [5]): 2 micrograms/mL; MIC, E. coli NCTC 13441 (E. coli; [5]): 2 micrograms/mL; MIC, A. baumannii ATCC BAA-747 (A. baumannii; [5]): 1 micrograms/mL; MIC, A. baumannii NCTC 13424 (A. baumannii; [5]): 2 micrograms/mL
3-aminomethyl- undecanoyl L- Thr-L-Dap- polymyxin B heptapeptide [Example D92] | 0.25 | 0.5 | 8 | 4 | 1 | 0.25 | 0.5 | 8 | 2 | 0.5 | 0.5 | 1 | 4 | 0.5 | 0.25 | 0.5 | 1 | 8 | 1 | 4 | MIC K. pneumoniae 062 [2]: 2 micrograms/mL
trans-4- octylpyrrolidine- 3-carbonyl L-Thr- L-Dap-polymyxin B heptapeptide [Example D89] | 0.5 | 1 | 8 | 4 | 0.5 |  | 0.5 | 4 | 1 | 1 | 1 | 0.5 | 2 | 0.5 | 0.5 | 0.5 | 1 | 16 | 0.5 | 8 | MIC, K. pneumoniae ATCC BAA-2146 (K. pneumoniae; sole activity, Table 6C): 0.5 micrograms/mL; MIC, E. coli NCTC 13441 (E. coli; sole activity, Table 6C): 0.125 micrograms/mL; MIC K. pneumoniae 062 [2]: 8 micrograms/mL
